In paper PMC12257535, “Distinct Interactions of Cannabinol and Its Cytochrome P450-Generated Metabolites with Receptors and Sensory Neurons” (Journal of Medicinal Chemistry, 2025):

Assays:
[1] = biological target: T1, CYP3A4 (Homo sapiens, UniProt P08684, S18F); test: NADPH oxidation assay with CYP3A4 nanodisc and CPR; details: triplicate
[2] = system: TRPV4; design: method as in ref 11 (De Petrocellis et al., citation mark lost in text); details: ref 11 (De Petrocellis et al.); cited from earlier work
[3] = system: IL-6; test: IL-6 ELISA in LPS-stimulated BV2 microglial cells; type: cell-based; details: LPS-stimulated BV2, 5 μM
Experimental: (§1) The BV2 microglial cells were subjected to the treatment of LPS both in the absence and presence of CBN and its selected metabolites. The seeding density for this assay was 1 × 10^5 cells/well. The cells were initially treated with the molecules for 4 h before being stimulated with LPS (25 ng/mL). The NO assay was performed 24 h after the treatment with LPS. The NO assay was performed according to the manufacturer’s protocol, and NO levels were quantified using nitrate standard curves. For the assay, 50 μL of cell media was used in a 96-well plate, and the absorbance was recorded at 540 nm. All measurements were performed in n = 5.
(§2) ELISA assays of IL-6, IL-10 (Item No. 88–7105), and Arginase 1 were performed using the same supernatant with which we had completed the NO and LDH assays. The culture media was collected, and the IL-6 (Thermo Scientific) and Arginase 1 (abcam) assays were performed using the specific monoclonal antibodies as per the manufacturer’s instructions.

[4] = system: Arginase 1; test: Arginase 1 ELISA in LPS-stimulated BV2 microglial cells; type: cell-based
Experimental: as §1, §2

[5] = biological target: T1, CYP3A4; test: CYP3A4-mediated CBN metabolism; type: in vitro ADME; design: polyhistidine (C); made in house; host or cells: E. coli DH5alpha; details: targeted and untargeted metabolomics
[6] = system: TRP channel; design: method as in ref 11 (De Petrocellis et al., citation mark lost in text); details: stimulation by 1 mM carvacrol; ref 11 (De Petrocellis et al.); read-out: IC50, prevention of intracellular calcium increase upon carvacrol; cited from earlier work
[7] = biological target: CB2 receptor (Homo sapiens, UniProt P34972); test: G protein nanoBRET assay, antagonist mode, CB2 receptor; details: 50 μM after pretreatment with 1 μM CP-55940
[8] = biological target: CB1 receptors; design: method as in ref 10 (Rhee et al., citation mark lost in text); details: COS-7 cell lines; ref 10 (Rhee et al.); cited from earlier work
[9] = In vivo metabolism of CBN in female mice, plasma levels by targeted LC/MS/MS; design: species or system C57BL/6 mice
Experimental: Initially dissolved in ethanol, CBN was combined with a volume of Tween 80, constituting 6% of the total solution volume for injection. Ethanol was eliminated via vacuum evaporation, and saline was added to prepare a 4 mg/mL solution. CBN (20 mg/kg) or vehicle was administered to C57BL/6 mice intravenously (IV) through the retro-orbital sinus or intraperitoneally (IP) at the lower right quadrant of the abdomen. Animals were euthanized at 30- or 120 min postinjection. Blood samples, collected via cardiac puncture into heparin tubes, underwent cold centrifugation at 4500 rpm for 15 min to isolate plasma. Plasma and whole liver samples were flash-frozen at −80 °C for subsequent analysis. Our decision to use female mice for this experiment was based on the availability of age-matched mice in the colony at the time of the experiment.
Mice were anaesthetized with a 3% inhalant dose of isoflurane until their respiratory rate decreased to 50% of baseline (i.e., 40–60 breaths/min) and the righting reflex was abolished. Mice were subsequently removed from the induction chamber and laid on their side. Using the index finger and thumb of the nondominant hand, the skin above and below the eye was retracted until a slight protrusion from the socket was noted. A 29G1/2 needle was inserted, bevel down, into the medial canthus at an approximate 45-degree angle until slight resistance was noted. Volume was slowly infused at a rate of 15uL/second. The needle was subsequently removed from the eye socket, and ophthalmic ointment was added.
Animals were gently restrained by scruff, and the injection site at the lower right quadrant of the abdomen was identified. The needle was inserted at a 60-degree angle to the body, and the plunger was lightly withdrawn to ensure the needle was not in contact with viscera or organs before dispensing volume.
200 μL plasma samples were collected and used for extraction using 1 mL of Hexane: Ethyl acetate (8:2 v/v) following a similar protocol described above.
Samples were analyzed using the Sciex QTrap 6500+ system (Framingham, MA) with Waters Acquity I- class plus UPLC. Software Analyst 1.7.1 was used for data acquisition.
The LC separation was performed on a Waters Acquity UPLC BEH column (2.1 × 100 mm, 1.7 μm) with mobile phase A (0.1% formic acid in water) and mobile phase B (0.1% formic acid in acetonitrile). The flow rate was 0.5 mL/min unless noted otherwise. The linear gradient was as follows: 0–0.5 min, 70%A; 2 min, 20%A; 4–4.2 min, 0%A; 4.21–5.2 min, 0%A (0.8 mL/min); 5.3–6.9 min, 70%A. The autosampler was set at 10 °C, and the column was kept at 50 °C. The injection volume was 5 μL.
Mass spectra were acquired under positive electrospray ionization (ESI) with the ion spray voltage of 4500 V. The source temperature was 500 °C. The curtain gas, ion source gas 1, and ion source gas 2 were 32, 50, and 70 psi, respectively. Multiple reaction monitoring (MRM) was used for quantitation with the MRM transition of CBN (m/z 311.2 → m/z 269.1), CBN-1′–OH (m/z 327.2 → m/z 253.1), CBN-11-OH (m/z 327.2 → m/z 128.1), CBN-p-quinone (m/z 325.2 → m/z 283.1) and EPEA-d4 as internal standard (m/z 350.3 → m/z 66.1).

[10] = system: NO; test: NO levels in LPS-stimulated BV2 microglial cells; type: cell-based
Experimental: as §1

[11] = biological target: CB2 receptors; design: method as in ref 10 (Rhee et al., citation mark lost in text); details: COS-7 cell lines; ref 10 (Rhee et al.); cited from earlier work
[12] = biological target: CB1 receptor (Homo sapiens, UniProt P21554); test: G protein nanoBRET assay, antagonist mode, CB1 receptor; details: 50 μM after pretreatment with 1 μM CP-55940
[13] = system: DRG neurons; test: Calcium responses of cultured DRG sensory neurons; type: cell-based; details: cultured mouse DRG neurons, 50 μM × 15 s
Experimental: 9 CBN and 11-OH CBN activate DRG neurons with similar response magnitudes but differ in their percentage of neurons activated and time to peak response. Calcium response traces of representative cultured mouse DRG neurons following application of CBN (A) and 11-OH CBN (B) 50 μM × 15 s (arrow). […] Mean value ± SEM (CBN: n = 59; 11-OH CBN: n = 29, two-tailed t test, Prism GraphPad).

[14] = system: IL-10; test: IL-10 ELISA in LPS-stimulated BV2 microglial cells; type: cell-based; details: LPS-stimulated BV2, 1–5 μM
Experimental: as §1, §2

T1 sequence (P08684 with tags, fused parts or gaps S18F limits assumed): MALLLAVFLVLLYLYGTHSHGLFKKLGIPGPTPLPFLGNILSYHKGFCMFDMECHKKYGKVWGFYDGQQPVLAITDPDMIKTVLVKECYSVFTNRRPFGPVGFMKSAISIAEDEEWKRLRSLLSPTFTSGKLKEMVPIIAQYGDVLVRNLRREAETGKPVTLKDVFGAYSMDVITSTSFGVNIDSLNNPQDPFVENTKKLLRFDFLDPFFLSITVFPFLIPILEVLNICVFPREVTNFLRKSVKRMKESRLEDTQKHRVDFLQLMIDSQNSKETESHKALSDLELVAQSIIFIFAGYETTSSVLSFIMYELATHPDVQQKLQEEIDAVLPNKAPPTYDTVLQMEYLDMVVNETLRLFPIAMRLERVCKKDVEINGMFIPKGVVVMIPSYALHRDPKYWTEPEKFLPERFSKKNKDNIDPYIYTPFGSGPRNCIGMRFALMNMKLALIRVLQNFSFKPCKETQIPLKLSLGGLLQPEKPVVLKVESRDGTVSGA
Sequence of CB1 receptor (P21554 whole entry): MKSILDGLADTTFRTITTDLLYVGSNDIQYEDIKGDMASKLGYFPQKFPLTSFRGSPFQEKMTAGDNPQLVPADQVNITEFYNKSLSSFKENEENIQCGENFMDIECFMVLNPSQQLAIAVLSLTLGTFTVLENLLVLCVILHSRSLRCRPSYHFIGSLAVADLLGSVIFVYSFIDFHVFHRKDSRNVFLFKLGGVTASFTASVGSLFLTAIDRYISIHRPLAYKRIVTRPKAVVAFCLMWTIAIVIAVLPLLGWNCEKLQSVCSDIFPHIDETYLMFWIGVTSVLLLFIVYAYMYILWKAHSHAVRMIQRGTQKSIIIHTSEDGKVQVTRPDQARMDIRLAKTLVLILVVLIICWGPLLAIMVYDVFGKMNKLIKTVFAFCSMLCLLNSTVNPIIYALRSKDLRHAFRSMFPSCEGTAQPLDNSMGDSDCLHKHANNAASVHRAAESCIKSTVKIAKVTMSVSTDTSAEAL
Sequence of CB2 receptor (P34972 whole entry): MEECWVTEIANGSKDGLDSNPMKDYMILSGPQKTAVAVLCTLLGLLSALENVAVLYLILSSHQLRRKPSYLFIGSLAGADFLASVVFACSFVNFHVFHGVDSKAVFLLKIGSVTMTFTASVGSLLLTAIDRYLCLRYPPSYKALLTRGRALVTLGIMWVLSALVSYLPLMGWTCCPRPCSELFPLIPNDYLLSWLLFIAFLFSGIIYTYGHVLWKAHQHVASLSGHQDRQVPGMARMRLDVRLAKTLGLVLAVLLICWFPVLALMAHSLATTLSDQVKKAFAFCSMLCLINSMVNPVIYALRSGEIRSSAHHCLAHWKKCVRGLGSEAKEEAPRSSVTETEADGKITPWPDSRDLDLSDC

SMILES: CCCCCc1cc(O)c2c(c1)OC(C)(C)c1ccc(C)cc1-2 [CBN, Cannabinol]
- rate of NADPH oxidation in the presence of the compound [1]: 249.731±14625 nmol/min/nmol
- efficacy in activating TRPV4 compared to ionomycin [2]: 15.3–26.1%
- IL-6 levels [3]: reduction in IL-6 levels
- Arginase1 levels [4]: slight increase in Arginase1 levels
- metabolism of CBN by CYP3A4 [5]: did not metabolize
- IC50 [6]: 9400 ± 100 nM
- inhibition of CB2 receptor [7]: partial inhibition
- Ki [8]: 211 ± 35 nM
- reduction of plasma level between 0.5 and 2 h ([9]; IP administration of CBN): 3 fold
- reduction of plasma level between 0.5 and 2 h ([9]; IV administration of CBN): ~3 fold
- amount of CBN available in plasma, intravenous relative to intraperitoneal ([9]; female mice, CBN 20 mg/kg, plasma): 3.0 times
- production of NO ([10]; LPS-stimulated BV2, 5 μM): slightly lower production of NO
- change in NO levels compared to cells with only LPS treatment ([10]; LPS-stimulated BV2, 1, 2.5 and 5 μM): no detectable significant (ns) change
- Ki [11]: 126 ± 26 nM
- inhibition of CB1 activation [12]: significant but partial inhibition
- Ca2+ response (%) [13]: 38.9 ± 4.3%
- DRG neuron activation (%) [13]: 29.3 ± 4.9%
- Response Time [13]: 40.7 ± 4.8 s
- percentage of DRG neurons activated [13]: 29.3 ± 4.9%
- time to peak response [13]: 40.7 ± 4.8 s
- IL-10 levels [14]: concentration-dependent increase in IL-10 levels
